One may read the IC50 as the concentration that inhibits the measured activity by half.

The source made the active and inactive calls. No cut-off for these calls is given here.

Assay [1] concerns ASPC1. Nature of the assay: Cytotoxicity against human AsPC1 cells assessed as cell viability 10 uM after 72 hrs by cell counting analysis relative to control. It is filed as functional.
Assay [2] has as its system U-118-MG. Briefly: Antiproliferative activity against human U118MG cells assessed as inhibition of cell growth at 100 uM after 72 hrs by WST1 assay. It is filed as functional, cell-based.
Assay [3] deals with T1, 3-phosphoinositide-dependent protein kinase 1 (Homo sapiens, UniProt O15530).
T1 sequence (O15530 whole entry): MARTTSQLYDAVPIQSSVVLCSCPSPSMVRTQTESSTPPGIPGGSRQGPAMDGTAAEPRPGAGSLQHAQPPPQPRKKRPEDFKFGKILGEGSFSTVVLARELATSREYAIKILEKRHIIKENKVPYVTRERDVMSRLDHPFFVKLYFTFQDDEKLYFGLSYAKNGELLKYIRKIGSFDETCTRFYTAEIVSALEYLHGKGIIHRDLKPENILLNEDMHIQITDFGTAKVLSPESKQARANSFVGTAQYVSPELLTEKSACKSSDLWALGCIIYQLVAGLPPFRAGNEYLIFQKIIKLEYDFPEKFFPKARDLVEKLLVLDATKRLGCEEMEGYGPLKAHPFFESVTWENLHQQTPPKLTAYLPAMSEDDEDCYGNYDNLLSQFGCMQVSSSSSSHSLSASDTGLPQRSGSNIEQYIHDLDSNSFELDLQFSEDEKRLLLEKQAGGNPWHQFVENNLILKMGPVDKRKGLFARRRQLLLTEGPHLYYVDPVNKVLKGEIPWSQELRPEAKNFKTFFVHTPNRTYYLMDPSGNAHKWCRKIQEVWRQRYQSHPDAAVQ
Briefly: Inhibition of PDK1 (unknown origin) incubated for 1 hr by Z'Lyte assay.

In assay [4] the target is RAC-alpha serine/threonine-protein kinase (Homo sapiens) (UniProt P31749). Nature of the assay: Inhibition of recombinant Akt1 (unknown origin) incubated for 1 hr by Z'Lyte assay.
Chain of RAC-alpha serine/threonine-protein kinase (Homo sapiens) (P31749 whole entry): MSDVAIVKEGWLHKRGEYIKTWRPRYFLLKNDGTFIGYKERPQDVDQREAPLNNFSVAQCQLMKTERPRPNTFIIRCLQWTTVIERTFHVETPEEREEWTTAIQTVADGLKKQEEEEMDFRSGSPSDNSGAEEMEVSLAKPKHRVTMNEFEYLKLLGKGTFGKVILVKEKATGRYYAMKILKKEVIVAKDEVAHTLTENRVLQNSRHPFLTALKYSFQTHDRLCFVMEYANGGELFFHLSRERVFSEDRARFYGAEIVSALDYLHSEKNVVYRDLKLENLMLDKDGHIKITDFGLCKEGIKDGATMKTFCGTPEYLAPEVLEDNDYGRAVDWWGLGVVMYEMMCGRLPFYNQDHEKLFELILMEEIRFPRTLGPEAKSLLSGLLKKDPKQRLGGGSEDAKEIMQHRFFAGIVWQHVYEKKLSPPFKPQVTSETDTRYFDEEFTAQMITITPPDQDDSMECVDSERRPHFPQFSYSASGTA

Regarding `CSc1ccc(NC(=O)Nc2ccc3c(c2)/C(=C/c2cnc[nH]2)C(=O)N3)cc1`, the Activity in assay [1] came to 82.94%. Turning to `Cn1nnc2c(C(N)=O)ncn2c1=O`, in assay [2], the “growth inhibition (GI)” value is “inactive”. For `CSc1ccc(NC(=O)Nc2ccc3c(c2)/C(=C\c2nccn2C)C(=O)N3)cc1`, the Activity in assay [1] was 95.13%. Turning to `COc1ccc(CNS(=O)(=O)c2ccc3c(c2)/C(=C/c2cccs2)C(=O)N3)cc1OC`, in assay [1], the Activity is 84.18%. Same read-out and setting: the result for `COc1ccc(CNS(=O)(=O)c2ccc3c(c2)/C(=C\c2nccn2C)C(=O)N3)cc1OC` reads 84.5%; that for `COc1cc2c(cc1OC)CN(CC(=O)Nc1ccc3c(c1)/C(=C/c1cccs1)C(=O)N3)CC2`, 82.04%. As for `CS(=O)(=O)c1ccc(NC(=O)Nc2ccc3c(c2)/C(=C/c2cccs2)C(=O)N3)cc1`, in assay [1], the Activity is listed as 93.88%. Take `CS(=O)(=O)Nc1ccc2c(c1)/C(=C/c1cccs1)C(=O)N2`: in assay [1], the Activity is 68.06%. The IC50 in assay [3] came to 6.81 µM. In assay [4], the inhibition result was “inactive”. As for `COc1ccc(CNCC(=O)Nc2ccc3c(c2)/C(=C/c2cccs2)C(=O)N3)cc1OC`, the Activity in assay [1] turned out to be 86.75%. The same measure, in the same setting: the result for `CS(=O)(=O)c1ccc(NC(=O)Nc2ccc3c(c2)/C(=C/c2cnc[nH]2)C(=O)N3)cc1` reads 82.21%. The same measure, in the same setting: the result for `CSc1ccc(NC(=O)Nc2ccc3c(c2)/C(=C/c2cccs2)C(=O)N3)cc1` reads 77.29%; that for `Cn1ccnc1/C=C1/C(=O)Nc2ccc(NS(C)(=O)=O)cc21`, 96.23%; that for `COc1cc2c(cc1OC)CN(CC(=O)Nc1ccc3c(c1)/C(=C\c1nccn1C)C(=O)N3)CC2`, 82.34%. Turning to `CS(=O)(=O)Nc1ccc2c(c1)/C(=C/c1cnc[nH]1)C(=O)N2`, the Activity in assay [1] turned out to be 73.83%. The compound also registered an IC50 in assay [3] of 0.31 µM. Moreover, the inhibition result in assay [4] is “inactive”.

Consider `Cn1ccnc1/C=C1/C(=O)Nc2ccc(NC(=O)Nc3ccc(S(C)(=O)=O)cc3)cc21`, for which the Activity in assay [1] was 90.57%.

The values are drawn from ChEMBL document CHEMBL3734692, “Design and synthesis of 2-oxindole based multi-targeted inhibitors of PDK1/Akt signaling pathway for the treatment of glioblastoma multiforme” (Eur J Med Chem, 2015).
